For one molecule, IC50 results are on record in ChEMBL document CHEMBL5338798, “An Analysis of Successful Hit-to-Clinical Candidate Pairs” (J Med Chem, 2023).

The assay concerns the target T1, Tyrosine-protein phosphatase non-receptor type 11 (Homo sapiens, UniProt Q06124).
T1 sequence (Q06124 whole entry): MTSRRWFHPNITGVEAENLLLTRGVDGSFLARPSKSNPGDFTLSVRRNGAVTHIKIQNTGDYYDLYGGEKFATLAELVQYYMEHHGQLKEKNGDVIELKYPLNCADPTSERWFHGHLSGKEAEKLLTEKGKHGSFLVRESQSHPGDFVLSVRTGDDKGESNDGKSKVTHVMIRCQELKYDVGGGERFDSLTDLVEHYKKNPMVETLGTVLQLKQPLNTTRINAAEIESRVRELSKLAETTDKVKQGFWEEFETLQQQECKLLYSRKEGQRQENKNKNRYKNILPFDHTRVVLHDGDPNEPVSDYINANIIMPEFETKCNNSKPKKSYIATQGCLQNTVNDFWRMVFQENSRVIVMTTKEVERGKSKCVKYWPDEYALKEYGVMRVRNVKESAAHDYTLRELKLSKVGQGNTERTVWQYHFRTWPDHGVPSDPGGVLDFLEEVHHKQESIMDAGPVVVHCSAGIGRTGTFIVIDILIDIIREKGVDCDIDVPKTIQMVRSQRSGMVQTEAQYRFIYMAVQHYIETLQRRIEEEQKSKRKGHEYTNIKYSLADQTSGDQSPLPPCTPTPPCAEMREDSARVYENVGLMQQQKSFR
As to the kind of experiment: Inhibition of SHP2 (unknown origin).

Structures are written as SMILES.

For orientation: IC50 means the point on the concentration scale where inhibition reaches its midpoint. A lower IC50 goes with higher potency. Take `CC1(N)CCN(c2cnc(Sc3cccc(Cl)c3Cl)c(N)n2)CC1`: the half-maximal inhibitory concentration (IC50) was determined as 30 nM. This counts as double-digit nanomolar.
